Experiments:
IL-13 gene = test: RT-PCR analysis of IL-13 mRNA; format: cell-based, human; conditions: HUVEC, 10 μM cPGI, 12 h, FIG. 1A
Protocol: (§1) For analysis of IL-13, human vascular endothelial cells (1.2×10^4 cells/cm^2) were stimulated with cPGI (10 μM) for 12 h, and total RNA was prepared from stimulated cells with Isogen (Nippon Gene). For analysis of COX-2, human vascular endothelial cells (1.2×10^4 cells/cm^2) were pretreated with TNF-α (1 ng/ml) and IL-1b (20 ng/ml) for 1 h, and then treated with cPGI (0, 10 μM), anti-human IL-13 monoclonal antibody (0, 0.5 μg/ml) and control IgG (0, 0.5 μg/ml) for 12 h to prepare total RNA. The total RNA (0.5 μg) was used for analysis by SuperScript RT-PCR system (Invitrogen) according to the manufacturer's instructions. The oligonucleotide primers used were IL-13-s (5′-[…]-3′ (SEQ ID NO: 6); sense) and IL-13-as (5′-[…]-3′ (SEQ ID NO: 7); antisense) for human IL-13, β-actin-s (5′-[…]-3′ (SEQ ID NO: 8); sense) and β-actin-as (5′-[…]-3′ (SEQ ID NO: 9); antisense) for human β-actin, and COX-2-s (5′-[…]-3′ (SEQ ID NO: 10); sense) and COX-2-as (5′-[…]-3′ (SEQ ID NO: 11); antisense) for human COX-2. For each PCR amplification, 1 μl of cDNA was used in a 50 μl reaction. Reverse transcription-PCR (RT-PCR) for β-actin (25 cycles) was used as an internal control for mRNA abundance. For IL-13 and COX-2 genes, the number of cycles ranged from 25 to 45. […] Samples were normalized based on equivalent expression of β-actin.

[1] = tested on: adhesion between human vascular endothelial cells and monocytic leukocyte U937 cells; test: Adherence assay of U937 cells to endothelial monolayers; format: cell-based; conditions: HUVEC
Protocol: HUVEC (2.5×10^4 cells/cm^2) were cultured in 12-well plates. After 24 h, confluent monolayers were used for adherence assays. Monolayers were preincubated in EGM-2 containing 2% FBS, 0 or 10 ng/ml TNF-α, 0 or 10 ng/ml IL-13 and 0 or 10 μM cPGI with or without anti-IL-13 monoclonal antibody (0.5 μg/ml) at 37° C. for 0 to 24 h. Human monocyte leukocyte U937 cells were cultured in RPMI 1640 (Gibco-Invitrogen) containing 10% FBS, 100 U/ml penicillin and […] streptomycin , labeled with 2.5 μM calcein-AM (Molecular Probes, Eugene, Oreg.) at room temperature for 45 min, washed and resuspended in serum-free EGM-2. The calcein-labeled U937 cells (8×10^4 cells/well) were added to pretreated endothelial cells and incubated with cPGI (0, 10 μM), recombinant IL-13 (0, 10 ng/ml) and anti-IL-13 monoclonal antibody (0, 0.5 μg/ml). U937 cells were allowed to adhere to pretreated endothelial cells for 30 min at 37° C. Adherence was assessed with a fluorescence image analyzer (FLA-2000; Fujifilm, Tokyo, Japan). Plates were scanned before and after washing for total and adherent cells, respectively, and relative adherence was calculated (fold of control).

PPRE (PPARδ activation) = test: PPREx3-luciferase reporter assay; format: cell-based, human; conditions: HUVEC, 24 h
Protocol: Primary cultured human umbilical vein endothelial cells (HUVEC) and human aortic endothelial cells (HAEC) were obtained from Kurabo Co. Ltd. (Tokyo, Japan) and were cultured in EGM-2 growth medium supplemented with 2% fetal bovine serum (FBS) and a mixture of growth factors according to the supplier's instructions. Total RNA from the cells in culture was prepared with Isogen (Nippon Gene, Tokyo, Japan). Human embryonic kidney HEK-293 cells were cultured in DMEM containing 10% FBS, 2 mM L-glutamine, 100 U/ml penicillin and […] streptomycin as described previously (Hatae et al., J. Biol. Chem. (2001) 276: 46260-7). […] HEK-293 cells were transfected with DNA using lipofectAMINE (Invitrogen, Carlsbad, Calif.) as described previously (Hatae et al., J. Biol. Chem. (2001) 276: 46260-7). Human vascular endothelial cells were transfected with TransIT LT-1 (PanVera Co., Madison, Wis.). Transfections were performed at a ratio of 1 μg of DNA to 3.0 μl of the reagents, and cells were incubated in serum-free EGM-2 at 37° C. for 5 h. Subsequently, cells were grown in fresh EGM-2 containing 2% FBS and a mixture of growth factors for 12 h before analysis. For reporter assay, human vascular endothelial cells (1.2×10^4 cells/cm^2) were cotransfected with 0.2 μg of the PPREx3-luciferase reporter vector and 0.1 μg of β-galactosidase expression vector by use of TransIT LT-1. After 17 h of transfection, cells were washed with PBS, incubated in EGM-2 containing 2% FBS and cPGI (0-100 μM) for 24 h at 37° C., and subjected to luciferase assay as described previously (Hatae et al., J. Biol. Chem. (2001) 276: 46260-7). The luciferase activity of the extract was normalized to β-galactosidase activity.

COX-2 gene = test: RT-PCR analysis of COX-2 mRNA; format: cell-based, human; conditions: HUVEC, cPGI 10 μM, 12 h, FIG. 5 lane 3
Protocol: as §1

luciferase activity of PPRE reporter, exogenous cPGI added to TNF-α (PPRE (PPARδ activation); TNF-α 0-10 ng/ml with cPGI 0, 2 or 10 μM, dose-dependent, FIG. 4B): enhanced
luciferase activity of reporter vector containing PPRE (PPRE (PPARδ activation); cPGI 0, 1, 10 and 100 μM, FIG. 1C): dose-dependent
Structure (SMILES): CCCCC[C@H](O)/C=C/[C@@H]1[C@H]2C/C(=C/CCCC(=O)O)C[C@H]2C[C@H]1O [cPGI, carbaprostacyclin]
IL-13 mRNA expression (RT-PCR) (IL-13 gene): apparent induction
TNF-α-induced monocytic leukocyte-endothelial cell adhesion ([1]; TNF-α 10 ng/ml plus antibody 0.5 μg/ml, cPGI 10 μM or IL-13 10 ng/ml, 24 h, FIG. 4D lanes 3-5): inhibited
adhesion over time, TNF-α pretreatment in the presence of cPGI ([1]; TNF-α 10 ng/ml, cPGI 10 μM, 0 h to 24 h, FIG. 4E): dramatically inhibited
inducible expression of COX-2 (TNF-α and IL-1 induced) (COX-2 gene): significantly inhibited

Reference: patent US20050080140A1, “Method for treating or preventing inflammatory disorders” (AnGes MG, Inc., priority 2003, published 2005)
